The text below walks through data of paper PMC12481249.

Like-named read-outs stand apart in the source and are kept apart here.

Assay [1] concerns MCF-7 Br Ca cell line. As to the kind of experiment: MTT cytotoxicity (antiproliferative) assay.
Description: Cytotoxic activity evaluation
To measure the cytotoxic actvity of the synthesized naphthalen-1-yloxyacetamide
tethered acrlamide derivatives 5a-j and 6a,b in breast adenocarcinoma (MCF-7) cell line
(ATCC Cat. No. HTB-22). Cell viability assay was assessed using MTT assay method.
Cells at density of 1 x 104 were seeded in a 96-well plate at 37 °C for 24 h under 5%
CO2. After incubation, the cells were treated with different concentrations of the
investigated naphthalen-1-yloxyacetamide tethered acrlamide derivatives 5a-j and 6a,b
and incubated for 24 h, then 20 l of MTT solution at 5 mg/mL was applied and
incubated for 4 h at 37 °C. Dimethyl sulphoxide (DMSO) in volume of 100 µl was
added to each well to dissolve the purple formazan that had formed. The color intensity
of the formazan product, which represents the growth condition of the cells, is quantified
by using an ELISA plate reader (EXL 800, USA) at 570 nm absorbance. The experimental conditions were carried out with at least three replicates, and the experiments were repeated at least three times.
The target of assay [2] is T1, aromatase enzyme (Homo sapiens, UniProt P11511).
T1 construct: IC50 values against aromatase enzyme in MCF-7 Br Ca cells treated with; endogenous in cells; host or cells: MCF-7
T1 sequence (P11511 1-503): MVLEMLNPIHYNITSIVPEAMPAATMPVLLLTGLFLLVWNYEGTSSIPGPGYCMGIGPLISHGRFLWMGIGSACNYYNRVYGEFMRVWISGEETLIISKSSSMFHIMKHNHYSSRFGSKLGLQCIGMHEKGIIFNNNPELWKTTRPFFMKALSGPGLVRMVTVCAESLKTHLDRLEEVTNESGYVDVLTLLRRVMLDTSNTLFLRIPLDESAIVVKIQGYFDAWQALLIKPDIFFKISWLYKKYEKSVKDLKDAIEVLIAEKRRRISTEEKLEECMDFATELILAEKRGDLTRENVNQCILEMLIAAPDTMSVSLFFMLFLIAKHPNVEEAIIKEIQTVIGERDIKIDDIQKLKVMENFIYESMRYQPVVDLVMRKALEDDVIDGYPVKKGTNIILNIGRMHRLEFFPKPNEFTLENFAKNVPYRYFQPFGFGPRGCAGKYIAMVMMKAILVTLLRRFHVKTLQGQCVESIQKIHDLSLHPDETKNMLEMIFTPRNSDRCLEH
As to the kind of experiment: Aromatase inhibition assay (ELISA method kit). It is filed as biochemical. The note with it: five concentrations.

In assay [3] the test system is Bcl-2. As to the kind of experiment: Bcl-2 level assay in MCF-7 cells. In kind it is cell-based. The following applies: MCF-7, qRT-PCR technique (SI: ELISA kit), IC50 concentration. The source says:
(§1) Programmed cell death, or apoptosis, is a complex series of biochemical processes.[50] Pro-apoptotic proteins include Bad, Bax, Bid and Bim, while anti-apoptotic members include Bcl-2 and Bc-LXI.[51,52] The anti-apoptotic proteins prevent cytochrome-c from release, which inhibits apoptosis, while pro-apoptotic members activate the release of cytochrome-c.[53] When there is a higher ratio of pro-apoptotic proteins than anti-apoptotic ones, the outer mitochondrial membrane becomes permeable leading to a cascade of events.[54] The cytochrome-c is released, which activates caspase 9, which in turn triggers caspase 3, which triggers apoptotic processes.[55] […] According to the data, the tested compound's Bax gen level increased noticeably compared with control. […]
(§2) Annexin V-FITC/ PI dye for 15 min in the dark at 37 °C. The samples were immediately analyzed using FACS Calibur flow cytometer (Becton and Dickinson, Heidelberg, […]
(§3) Bcl-2, Bax and Caspase 9 activities in MCF-7 Br Ca cells were detected in the presence of conjugate 5d at the IC50 concentration (µM). The levels of anti-apoptotic marker Bcl-2, apoptotic markers Bax as well as Caspase 9 were assessed using appropriate ELISA kit. […]
(§4) with IC50 concentration of compound 5d. […] The samples were measured at 450 nm in ROBONEK P2000 ELISA reader. […]
In general terms: In qPCR the cycle at which signal appears reflects the starting amount.

Assay [4] has as its system MCF-7 Br Ca cells. As to the kind of experiment: DNA flow cytometry cell cycle analysis. The note with it: MCF-7, at the IC50 value for 48 h. In kind it is cell-based. From the text: It is frequently utilized in cell biology to comprehend growth regulation, cell proliferation and the impact of both drugs and genetic alterations on cellular division.[44] Recognizing and manipulating the phase at which cell cycle arrest occurs can improve the therapeutic efficacy and selectivity of chemotherapeutic drugs, as many cancer therapies target rapidly proliferating cells.[45] The most cytotoxic naphthalen-1-yloxyacetamide-tethered acrylamide conjugate, 5d, was chosen in order to further assess its impact on the advancement on cell cycle in MCF-7 Br Ca cells. […] There was also a control experiment that receives no treatment. According to Flow cytometric study, naphthalen-1-yloxyacetamide-tethered acrylamide conjugate 5d treatment causes a G1 stoppage that is almost 1.4-times greater than that of the control (Fig. 4).
S4.2.3. Cell cycle analysis of compound 5d
Cell cycle analysis in MCF-7 cells was investigated using fluorescent Annexin V-FITC/ PI detection kit (BioVision EZCellTM Cell Cycle Analysis Kit Catalog #K920) by flow […]
washed twice in PBS. After that, the cells were incubated at 37 °C and 5% CO2. The […]
twice in PBS, fixed with 70% ethanol, rinsed again with PBS. Afterward, medium was stained with DNA fluorochrome PI for 15 min at 37 °C. The samples were immediately analyzed using Facs Calibur flow cytometer (Becton and Dickinson, Heidelberg, […]
S4.2.4. […]
On the technique in general: Flow cytometry measures light scatter and fluorescence of single cells or particles in a stream.

In assay [5] the test system is caspase 9. As to the kind of experiment: Caspase 9 level assay in MCF-7 cells. In kind it is cell-based. The note with it: MCF-7, qRT-PCR technique (SI: ELISA kit), IC50 concentration.
Description: An essential initiator caspase in the intrinsic apoptotic process is caspase 9.[56] It is essential for inducing cell death in response to internal stress such as oxidative stress, DNA damage, or oncogene activation conditions, which are frequently present in cancer cells.[57] Therefore, therapeutic strategies that enhance or restore its activity can potentially overcome apoptosis resistance in tumors.[58] In this context, naphthalene-1-yloxyacetamide tethered acrylamide conjugate 5d were evaluated as caspase 9 activator against MCF-7 cells using qRT-PCR technique. […] It is worth mentioning that, the level of caspase 9 protein level is increased 8.2-fold more than the negative control.
Apoptosis in MCF-7 cells was investigated using fluorescent Annexin V-FITC/ PI detection kit (BioVision Annexin V-FITC Apoptosis Detection Kit, Catalog #: K101) by […]
as §2
6. […]
as §3, §4

Assay [6] concerns MCF-7 Br Ca cells. As to the kind of experiment: FITC-Annexin V/PI apoptosis assay. It is filed as cell-based. The note with it: MCF-7, 48 h.
In assay [7] the test system is Bax. Nature of the assay: Bax level assay in MCF-7 cells. It is filed as cell-based. The following applies: MCF-7, qRT-PCR technique (SI: ELISA kit), IC50 concentration.
Description: as §1, §2, §3, §4

Assay [8] has as its target aromatase. On the set-up: method as in PMID 31416738. The note with it: cited from earlier work.
The mark [9] stands for this setting: Homo sapiens, MCF7, read-out: IC50 MCF-7, MTT, MCF-7 Br Ca cell line, mean ± SD (n = 3).

In general, IC50 refers to the point on the concentration scale where inhibition reaches its midpoint. Consider `O=C(COc1cccc2ccccc12)NNC(=O)/C(=C/c1ccc(Cl)cc1)NC(=O)c1ccccc1` [5a, (Z)-N-(1-(4-Chlorophenyl)-3-(2-(2-(naphthalen-1-yloxy)acetyl)hydrazineyl)-3-oxoprop-1-en-2-yl)benzamide], for which the IC50 in assay [1] (setting [9]) stood at 51.8 ± 1.51 µM.

On to `O=C(COc1cccc2ccccc12)NNC(=O)/C(=C/c1ccc(Br)cc1)NC(=O)c1ccccc1` [5b, (Z)-N-(1-(4-Bromophenyl)-3-(2-(2-(naphthalen-1-yloxy)acetyl)hydrazineyl)-3-oxoprop-1-en-2-yl)benzamide], for which the IC50 in assay [1] (setting [9]) worked out at 30.7 ± 1.18 µM.

Regarding `O=C(COc1cccc2ccccc12)NNC(=O)/C(=C/c1ccc([N+](=O)[O-])cc1)NC(=O)c1ccccc1` [5c, (Z)-N-(3-(2-(2-(Naphthalen-1-yloxy)acetyl)hydrazineyl)-1-(4-nitrophenyl)-3-oxoprop-1-en-2-yl)benzamide], in assay [2], the IC50 came out at 0.143 µM.

With `COc1ccc(/C=C(\NC(=O)c2ccccc2)C(=O)NNC(=O)COc2cccc3ccccc23)cc1` [5d, (Z)-N-(1-(4-methoxyphenyl)-3-(2-(2-(naphthalen-1-yloxy)acetyl)hydrazineyl)-3-oxoprop-1-en-2-yl)benzamide], in assay [3], the “Bcl-2 gene level factor vs negative control” value is listed as 0.3. Further, in assay [4], the “G1 stoppage relative to control” value is listed as ~1.4 times. The IC50 in assay [1] (setting [9]) worked out at 3.03 µM; in assay [1] (read-out: IC50 MCF-7, MTT, MCF-7 Br Ca cell line, mean ± SD (n = 3)), 2.33 ± 0.1 µM; in assay [2] it was 0.078 µM. Besides, in assay [5], the “caspase 9 level fold vs negative control” value is given as 8.2 fold. In addition, the “early apoptosis fold increase vs control” value in assay [6] amounted to 33.6 fold. In addition, the “late apoptosis fold increase vs control” value in assay [6] stood at 42.0 fold. Also, the “late apoptotic cells percentage” value in assay [6] (IC50 concentration, control untreated 0.14%) came to 5.88%. This molecule also came in with an early apoptosis percentage in assay [6] (IC50 concentration, no treatment control 0.57%) of 19.17%. Besides, in assay [7], the “Bax level fold vs untreated MCF-7 cells” value is reported as 4.0 fold.

The molecule `CN(C)c1ccc(/C=C(\NC(=O)c2ccccc2)C(=O)NNC(=O)COc2cccc3ccccc23)cc1` [5e, (Z)-N-(1-(4-(Dimethylamino)phenyl)-3-(2-(2-(naphthalen-1-yloxy)acetyl)hydrazineyl)-3-oxoprop-1-en-2-yl)benzamide] showed an IC50 in assay [2] of 0.093 µM.

`COc1ccc(/C=C(\NC(=O)c2ccccc2)C(=O)NNC(=O)COc2cccc3ccccc23)cc1OC` [5f, (Z)-N-(1-(3,4-Dimethoxyphenyl)-3-(2-(2-(naphthalen-1-yloxy)acetyl)hydrazineyl)-3-oxoprop-1-en-2-yl)benzamide]: in assay [1] (setting [9]), the IC50 amounted to 28.7 ± 1.45 µM.

`O=C(COc1cccc2ccccc12)NNC(=O)/C(=C/c1cc(Br)c(O)c(Br)c1)NC(=O)c1ccccc1` [5g, (Z)-N-(1-(3,5-Dibromo-4-hydroxyphenyl)-3-(2-(2-(naphthalen-1-yloxy)acetyl)hydrazineyl)-3-oxoprop-1-en-2-yl)benzamide]: the IC50 in assay [1] (setting [9]) was determined as 18.5 ± 1.26 µM.

As for `COc1ccc(/C=C(\NC(=O)c2ccccc2)C(=O)NNC(=O)COc2cccc3ccccc23)c(OC)c1OC` [5h, (Z)-N-(3-(2-(2-(Naphthalen-1-yloxy)acetyl)hydrazineyl)-3-oxo-1-(2,3,4-trimethoxyphenyl)prop-1-en-2-yl)benzamide], in assay [1] (setting [9]), the IC50 was found to be 25.9 ± 1.41 µM.

`COc1cc(/C=C(\NC(=O)c2ccccc2)C(=O)NNC(=O)COc2cccc3ccccc23)cc(OC)c1OC` [5i, (Z)-N-(3-(2-(2-(Naphthalen-1-yloxy)acetyl)hydrazineyl)-3-oxo-1-(3,4,5-trimethoxyphenyl)prop-1-en-2-yl)benzamide]: the IC50 in assay [1] (setting [9]) stood at 16.9 ± 0.82 µM.

In the case of `COc1ccc(C(=O)N/C(=C\c2cc(OC)c(OC)c(OC)c2)C(=O)NNC(=O)COc2cccc3ccccc23)cc1` [5j, (Z)-4-Methoxy-N-(3-(2-(2-(naphthalen-1-yloxy)acetyl)hydrazineyl)-3-oxo-1-(3,4,5-trimethoxyphenyl)prop-1-en-2-yl)benzamide], in assay [1] (setting [9]), the half-maximal inhibitory concentration (IC50) was 21.2 ± 0.92 µM.

In the case of `O=C(COc1cccc2ccccc12)NNC(=O)/C(=C/c1ccco1)NC(=O)c1ccccc1` [6a, (Z)-N-(1-(Furan-2-yl)-3-(2-(2-(naphthalen-1-yloxy)acetyl)hydrazineyl)-3-oxoprop-1-en-2-yl)benzamide], in assay [1] (setting [9]), the IC50 is 9.18 ± 0.66 µM.

As to `COc1ccc(C(=O)N/C(=C\c2ccco2)C(=O)NNC(=O)COc2cccc3ccccc23)cc1` [6b, (Z)-N-(1-(Furan-2-yl)-3-(2-(2-(naphthalen-1-yloxy)acetyl)hydrazineyl)-3-oxoprop-1-en-2-yl)-4-methoxybenzamide], in assay [1] (setting [9]), the IC50 came out at 11.5 ± 0.76 µM.

`O=S(=O)(NCc1cccc(CNS(=O)(=O)c2ccc3ccccc3c2)c1)c1ccc2ccccc2c1` [IV]: the IC50 in assay [8] was 0.21 µM.
